Test system: clock gene Bmall promoter in NIH3T3 cells
Assay: Bmall promoter luciferase reporter, influence on expression of circadian clock gene (Test Example 1)
Assay type: cell-based, mouse
Settings: Example 1, 12.5 μM in medium, NIH3T3, vs ethanol control, FIG. 1
Description: The circadian rhythm regulatory agents of Examples 1 to 3 (i.e., 1,3-dihydroxy-5-n-pentadecylbenzene, alkylresorcinol-containing ethanolic bran extract, and alkylresorcinol-containing ethanolic rye extract) were evaluated for the influence on expression of circadian clock gene in accordance with the following test method.
To prepare a recombination vector, the promoter regions of a clock gene Bmall (−97 to +27 regions including the RORE sequence and the transcription initiation site) were inserted into a luciferase luminescence vector containing a PEST sequence serving as a signal for rapid degradation of expressed proteins (pGL3-dLuc, from Promega). About 5×10^5 cells of mouse fibroblast cell line NIH3T3 were inoculated into a 35 mm diameter culture dish. […]
Screening of candidate substances was performed using the culture cells. […] Then, a test substance was added to a medium containing a luciferin, (a luminescence substrate of […]), and chemiluminescence by the reporter genes was measured in real-time while continuing the cell culture. […] As a control, ethanol, which is the solvent of the test substance, was added at the same timing, and the changes in amount of luminescence were compared. Luminescence was measured for one minute at 10 minute interval using AB-2550 Kronos Dia from ATTO Corp.

Q: Which “circadian rhythm phase of Bmall expression” value does the source give for CCCCCCCCCCCCCCCc1cc(O)cc(O)c1 [Example 1, 1,3-Dihydhroxy-5-n-pentadecylbenzene (C15:0)] here?
A: delays the circadian rhythm phase

Q: And the “shortening of the cycle of Bmall expression rhythm” value?
A: 0.5 h
